Data from patent US9636324B2, “Use of 15-benzylidence-14-deoxy-11, 12 -dehyroandrographolide derivative in manufacture of medicaments for protecting liver and anti-hepatitis C virus” (Zhengzhou University, priority 2012, dated 2017).

Test system: mice with ConA induced liver damage
Assay: ConA induced immunological liver damage model in mice
Assay type: in vivo, Kunming mice
Description: Kunming mice of clean grade (male, weight 20±2 g, supplied by the Laboratory Animal Center, Henan Province) are randomly divided into groups with 6 mice in each group. Bifendate (Xinchang Pharmaceutical Factory of Zhejiang Pharmaceutical Co., Ltd, 200 mg/kg) is used as positive control, andrographolide (AD) is provided by Furen Pharmaceutical Group Co., Ltd, and the test compounds are synthesized by the inventors with purities higher than 99.0%. Normal control group and model group are intragastrically given 0.5% sodium carboxymethylcellulose (CMC-Na), and test groups are given 0.5% CMC-Na suspensions with AD (0.88 mmol/kg), and low dosage (0.66 mmol/kg) and high dosage (0.88 mmol/kg) of compound A, B and C, respectively. The drugs are given for 3 days. One hour after the last administration, all mice except those in the normal control group are injected with a single dose of ConA (20 mg/kg) through the caudal vein. After 8 h, the eyeball is enucleated to collect blood, which is centrifuged at 3000 rpm for 15 min to separate serum. ALT and AST are tested according to the kit specification, respectively (Nanjing Jiancheng Bioengineering Institute). The left lobe of liver is taken to prepare 10% homogenate using physiological saline, MDA is determined according to the kit specification (Nanjing Jiancheng Bioengineering Institute). To 50 μL liver homogenate is added 2 mL of 0.5 mol/L KOH-methanol solution and kept at 50° C. water bath to isomerize for 20 minutes, then absorbance (A value) is measured at 278 nm, using the A value per mL of homogenate to represent the PGE2 content. Experimental data are expressed as average±standard deviation (X±s), analyzed with SPSS 11.5 statistic software, with P<0.05 meaning significant difference.
Kunming mice of clean grade (male, weight 20±2 g) are randomly divided into normal group, model group, bifendate (Zhejiang Wanbang Pharmaceutical Co., Ltd) positive control group (200 mg/kg), AD group (0.88 mmol/kg), low dosage group (0.66 mmol/kg) and high dosage (0.88 mmol/kg) group of compound D. ALT, AST, and MDA assay kits are purchased from Nanjing Jiancheng Bioengineering Institute. Other agents, drugs and experimental methods are the same as in EXAMPLE 1.
In experimental investigation of both models, the following grouping method is used: Kunming mice of clean grade (male, weight 20±2 g) are randomly divided into normal group, model group, bifendate group (200 mg/kg), AD group (0.88 mmol/kg), low dosage group (0.66 mmol/kg) and high dosage group (0.88 mmol/kg) of compound E, with 8 mice in each group. Other agents, drugs and experimental methods are the same as in EXAMPLE 1 and in EXAMPLE 4, respectively.

[1] = low dosage (printed 0.66 mol/kg), P<0.01

## C=C1CCC2C(C)(CO)C(O)CCC2(C)C1C=CC1=CC(=Cc2ccc(Cl)cc2)OC1=O (centres unmarked) [Compound A]
HE stain, 200x, FIG. 5
  liver histopathologic section (HE staining): no observation of extravasated blood in sinus hepaticus, liver cells show slightly granular degeneration and vacuolar degeneration, and no spotted and focal necrosis region is observed
High dosage 0.88 mmol/kg
  serum enzyme level relative to normal level: essentially decreased to normal level
High dosage 0.88 mmol/kg vs AD 0.88 mmol/kg, P<0.05
  enzyme (ALT, AST) lowering effect compared to AD group: better enzyme lowering effect
High dosage 0.88 mmol/kg, P<0.01
  PGE2 content in liver homogenate vs model group: notably reduce PGE2 content
Low dosage 0.66 mmol/kg, P<0.05 (A), P<0.01 (D)
  PGE2 content in liver homogenate vs model group: notably reduce PGE2 content
[1]
  MDA content in liver homogenate vs model group: more obvious effect
  ability against liver lipid peroxidation compared with AD group: stronger resistant ability against liver lipid peroxidation
mice, intragastric, 3 days
  protective effect against liver damage induced by ConA (summary): notably protective effect
